The test system of one assay is sterol synthesis. In words: Test C. In Vivo Cholesterol Biosynthesis Inhibition Test. More on the design: species or system rat. As to conditions: for ED50: Rattus norvegicus, read-out: ED50 (inhibition of sterol synthesis). The source says:
Test C. In Vivo Cholesterol Biosynthesis Inhibition Test In vivo studies utilize male Wistar Royal Hart rats weighing 150±20 g. which have been kept for 7-10 days on an altered light cycle (6:30 A.M.-6:30 P.M. dark) housed two per cage and fed powdered Purina Rat Chow and water ad libitum. […] Controls receive vehicle alone. […] Two hours after mid-dark, blood samples are obtained under sodium hexobarbitol anesthesia and the serum separated by centrifugation. […] Inhibition of sterol synthesis is calculated from the reduction in the nCi of sterols formed from test groups compared to controls.

Assay [1] concerns Fu5AH rat hepatoma cell line. In words: Test B. In Vitro Cell Culture Cholesterol Biosynthesis Screen. The class given is cell-based. As to conditions: Fu5AH cells, 3 hours; for IC50: [14C]acetate incorporation, read-out: IC50 (50% inhibition of sterol biosynthesis).
Procedure: The cell culture is prepared as follows: Stock monolayer cultures of the Fu5AH rat hepatoma cell line (originally obtained from G. Rothblat; see Rothblat, Lipids 9, 526-535 (1974)) are routinely maintained in Eagle's Minimum Essential Medium (EMEM) supplemented with 10% fetal bovine serum (FBS) in 75 cm.^2 tissue culture flasks. For these studies, when the cultures reach confluence, they are removed by mild enzymatic treatment with 0.25% trypsin in Hanks' balanced salt solution (without calcium and magnesium). After centrifugation of the cell suspension and aspiration of the enzymatic solution, the cell pellet is resuspended in an appropriate volume of media for seeding into 60 mm. tissue culture dishes. The cultures are incubated at 37° C. in an atmosphere of high humidity and 5% carbon dioxide. When the cultures are confluent (approximately 5 days), they are ready for use. The culture media is aspirated from the dishes and replaced with 3 ml. of EMEM supplemented with 5 mg./ml. of delipidized serum protein (DLSP) prepared by the method of Rothblat et al., In Vitro 12, 554-557 (1976). […] Enhanced 3-hydroxy-3-methylglutaryl Coenzyme A reductase (HMG-CoA reductase) activity is measurable in the cells in response to the lack of exogenous sterol. Following approximately 24 hours incubation at 37° C. in the DLSP supplemented media, the assay is initiated by the addition of 3 μCi of [^14 C]acetate and the test substance solubilized in dimethylsulfoxide (DMSO) or distilled water. Solvent controls and compactin-treated controls are always prepared. Triplicate 60 mm. tissue culture dishes are run for each group. After 3 hours incubation at 37° C., the cultures are examined microscopically using an inverted phase contrast microscope. Notations are made of any morphological changes which may have occurred in the cultures. The media is aspirated and the cell layer is gently washed twice with 0.9% sodium chloride solution (saline). The cell layer is then harvested in 3 ml. of 0.9% saline by gentle scraping with a rubber policeman and transferred to a clean glass tube with Teflon lined cap. The dishes are rinsed with 3 ml. of 0.9% saline and rescraped, and the cells are combined with the first harvest. The tubes are centrifuged at 1500 r.p.m. for 10 minutes in an IEC PR-J centrifuge, and the supernatant is aspirated.
The cells are then extracted as follows: One ml. of 100% ethanol is added to the cell pellet followed by sonication for 10 seconds with a "LO" setting of 50 on a Bronwell Biosonik IV. One hundred μl. are taken for protein determination. One ml. of 15% potassium hydroxide (KOH) is added, and the samples are thoroughly vortexed. Saponification is accomplished by heating the ethanol-KOH treated samples at 60° C. for 60 minutes in a water bath. Following dilution of the samples with 2 ml. of distilled water, they are extracted three times with 7 ml. of petroleum ether. The petroleum ether extracts are then washed three times with 2 ml. of distilled water and finally taken to dryness under a stream of nitrogen.
The obtained samples are then analyzed by thin layer chromatography (TLC) as follows: Residues from the petroleum ether extraction are taken up in a small volume of hexane and spotted on silica gel 60 TLC plates (E. Merck). Development of the plates is carried out in a three phase solvent system consisting of 150 parts by volume hexane: 50 parts by volume diethyl ether: 5 parts by volume glacial acetic acid.
Visualization is accomplished in an iodine vapor chamber. The plates are divided into five sections such that each section contains the molecules having the following approximate Rf values: section 1- 0-0.4, section 2- 0.4-0.55, section 3- 0.55-0.7, section 4- 0.7-0.9 and section 5- 0.9-1.0. Section 2 contains the non-saponifiable sterols. The five sections of the TLC plates are scraped into scintillation vials.
A further assay concerns the target T1, HMG-CoA reductase (Rattus norvegicus, UniProt P51639).
T1 construct: the microsomes are the source of the HMG-CoA reductase enzyme; from tissue; host or cells: liver microsomes, male Sprague-Dawley rats (150-225 g)
T1 sequence (P51639 1-887): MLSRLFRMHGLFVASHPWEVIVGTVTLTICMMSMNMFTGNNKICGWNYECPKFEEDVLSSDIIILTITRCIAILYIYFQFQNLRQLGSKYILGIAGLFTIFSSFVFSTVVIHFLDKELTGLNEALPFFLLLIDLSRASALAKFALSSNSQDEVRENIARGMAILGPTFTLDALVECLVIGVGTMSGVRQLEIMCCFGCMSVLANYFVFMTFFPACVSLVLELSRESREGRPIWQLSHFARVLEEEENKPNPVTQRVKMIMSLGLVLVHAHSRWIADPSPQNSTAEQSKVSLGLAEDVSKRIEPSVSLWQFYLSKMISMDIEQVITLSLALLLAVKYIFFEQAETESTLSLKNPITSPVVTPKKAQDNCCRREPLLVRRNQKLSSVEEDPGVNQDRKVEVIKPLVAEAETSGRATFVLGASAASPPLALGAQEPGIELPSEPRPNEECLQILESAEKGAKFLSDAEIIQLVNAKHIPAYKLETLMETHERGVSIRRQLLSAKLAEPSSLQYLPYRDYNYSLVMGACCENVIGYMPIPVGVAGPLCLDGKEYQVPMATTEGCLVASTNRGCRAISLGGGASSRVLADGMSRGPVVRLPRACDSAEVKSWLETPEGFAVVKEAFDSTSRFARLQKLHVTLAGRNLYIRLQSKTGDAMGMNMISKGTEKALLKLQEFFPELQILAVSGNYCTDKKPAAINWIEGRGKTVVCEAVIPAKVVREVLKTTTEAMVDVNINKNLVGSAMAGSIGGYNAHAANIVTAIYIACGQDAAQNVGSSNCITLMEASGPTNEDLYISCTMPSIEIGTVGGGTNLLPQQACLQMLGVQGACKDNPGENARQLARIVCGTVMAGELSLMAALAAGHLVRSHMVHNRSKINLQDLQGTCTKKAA
In words: Test A. In Vitro Microsomal Assay of HMG-CoA Reductase Inhibition. The class given is biochemical. As to conditions: rat liver microsomes, male Sprague-Dawley rats; read-out: IC50 (50% inhibition of HMG-CoA reductase activity). On the procedure: Test A. In Vitro Microsomal Assay of HMG-CoA Reductase Inhibition:
200 μl. aliquots (1.08-1.50 mg./ml.) of rat liver microsomal suspensions, freshly prepared from male Sprague-Dawley rats (150-225 g. body weight), in Buffer A with 10 mmol. dithiothreitol are incubated with 10 μl. of a solution of the test substance in dimethylacetamide and assayed for HMG-CoA reductase activity as described in Ackerman et al., J. Lipid Res. 18, 408-413 (1977). In the assay the microsomes are the source of the HMG-CoA reductase enzyme which catalyzes the reduction of HMG-CoA to mevalonate. The assay employs a chloroform extraction to separate the product, [^14 C]mevalonolactone, formed by the HMG-CoA reductase reaction from the substrate, [^14 C]HMG-CoA. [^3 H]mevalonolactoneis added as an internal reference. Inhibition of HMG-CoA reductase is calculated from the decrease in specific activity [^14 C/^3 H]mevalonate) of test groups compared to controls.
IC50 is the concentration of the test substance in the assay system
calculated to produce a 50% inhibition of HMG-CoA reductase activity (Test
A) or sterol biosynthesis (Test B) .

The mark [2] stands for this setting: male Wistar Royal Hart rats, serum [14C] sterols.

Structures are written as SMILES. Like-named read-outs stand apart in the source and are kept apart here. Where only a bound is given, the exact number is not on record here.

For the compound `Cn1c(/C=C/[C@@H]2C[C@@H](O)CC(=O)O2)c(-c2ccc(F)cc2)c2ccccc21` (relative stereo) [Example 4 (a), (E)-Trans-6-[2'-[3"-(4'"-fluorophenyl)-1"-methylindol-2"-yl]ethenyl]-4-hydroxy-3,4,5,6-tetrahydro-2H-pyran-2-one], the median effective dose (ED50) with sterol synthesis (setting [2]) was determined as 7 mg/kg. The IC50 came to 0.62 µM in assay [1] and 3 µM at HMG-CoA reductase.

On to `CC(C)n1c(/C=C/[C@@H](O)C[C@@H](O)CC(=O)O)c(-c2ccc(F)cc2)c2ccccc21` (relative stereo) [Example 8, Sodium erythro-(±)-(E)-3,5-dihydroxy-7-[3'-(4"-fluorophenyl)-1'-(1"-methylethyl)indol-2'-yl]hept-6-enoate], for which the ED50 in the assay with sterol synthesis was 0.09 mg/kg. For the same compound, in assay [1], the IC50 came out at 0.05 µM.

Take `CC(C)n1c(/C=C/[C@H](O)C[C@@H](O)CC(=O)O)c(-c2ccc(F)cc2)c2ccccc21` (relative stereo) [Example 9, Sodium threo-(±)-(E)-3,5-dihydroxy-7-[3'-(4"-fluorophenyl)-1'-(1"-methylethyl)indol-2'-yl]hept-6-enoate]: the ED50 in the assay on sterol synthesis was found to be 1.4 mg/kg. Further, the IC50 in assay [1] is 0.22 µM.

Turning to `Cc1cc(C)cc(-c2c(/C=C/[C@@H](O)C[C@@H](O)CC(=O)O)n(C(C)C)c3ccccc23)c1` (relative stereo) [Example 14D, Sodium erythro-(±)-(E)-3,5-dihydroxy-7-[3'-(3",5"-dimethylphenyl)-1'-(1"-methylethyl)indol-2'-yl]hept-6-enoate], the ED50 in the assay on sterol synthesis (setting [2]) was determined as 0.16 mg/kg. Moreover, at HMG-CoA reductase, the half-maximal inhibitory concentration (IC50) was determined as 0.005 µM.

As to `Cn1c(/C=C/[C@H](O)C[C@@H](O)CC(=O)O)c(-c2ccc(F)cc2)c2cccc(OCc3ccccc3)c21` (relative stereo) [Example 54], the IC50 on HMG-CoA reductase worked out at 464 µM.

Turning to `Cc1cc(C)c2c(-c3ccc(F)cc3)c(/C=C/[C@@H](O)C[C@@H](O)CC(=O)O)n(C(C)C)c2c1` (relative stereo) [Example 64], the ED50 with sterol synthesis (setting [2]) came out at 0.66 mg/kg. Also, the figures for the IC50 (in assay [1]; at HMG-CoA reductase) were 0.03 µM and 0.012 µM, respectively.

As for `Cn1c(CC[C@@H]2C[C@@H](O)CC(=O)O2)c(-c2ccc(F)cc2)c2ccccc21` (relative stereo) [Example 89], the IC50 on HMG-CoA reductase worked out at 9.3 µM.

On to `Cn1c(/C=C/[C@H]2C[C@@H](O)CC(=O)O2)c(-c2ccc(F)cc2)c2cccc(OCc3ccccc3)c21` (relative stereo) [Example 102], for which, on HMG-CoA reductase, the IC50 is over 1000 µM.

Take `CCn1c(/C=C/[C@H]2C[C@@H](O)CC(=O)O2)c(-c2ccc(F)cc2)c2ccccc21` (relative stereo) [Example 111]: the IC50 in assay [1] came to 0.19 µM.

As to `Cc1cc(-c2c(/C=C/[C@H]3C[C@@H](O)CC(=O)O3)n(C(C)C)c3ccccc23)ccc1F` (relative stereo) [Example 113], the ED50 in the assay with sterol synthesis (setting [2]) was 0.51 mg/kg. Also, the concentration for half-maximal inhibition (IC50) on HMG-CoA reductase turned out to be 0.03 µM.

Take `Cc1c(/C=C/[C@@H]2C[C@@H](O)CC(=O)O2)n(-c2ccccc2)c2ccccc12` (relative stereo) [Example 142]: the ED50 with sterol synthesis (setting [2]) is 6.1 mg/kg. The IC50 was found to be 1.5 µM in assay [1] and 1.3 µM on HMG-CoA reductase.

As for `CC[C@H](C)C(=O)O[C@H]1CCC=C2C=C[C@H](C)[C@H](CC[C@@H]3C[C@@H](O)CC(=O)O3)[C@H]21` [Compactin, reference compound], the ED50 in the assay on sterol synthesis (setting [2]) was 3.5 mg/kg. The concentration for half-maximal inhibition (IC50) is 0.06 µM in assay [1] and 0.77 µM on HMG-CoA reductase.

In the case of `COC(=O)CC(O)CC(O)/C=C/c1c(-c2ccc(F)cc2)c2ccccc2n1C` (stereo not drawn) [Example 1, Methyl (E)-3,5-dihydroxy-7-[3'-(4"-fluorophenyl)-1'-methylindol-2'-yl]hept-6-enoate], the median effective dose (ED50) in the assay with sterol synthesis (setting [2]) is 6.2 mg/kg. For the same compound, the IC50 in assay [1] came out at 0.8 µM; at HMG-CoA reductase, 1.7 µM.

As for `Cn1c(/C=C/C2CC(O)CC(=O)O2)c(-c2ccc(F)cc2)c2ccccc21` (stereo not drawn) [Example 3, (E)-6-[2'-[3"-(4'"-Fluorophenyl)-1"-methylindol-2"-yl]ethenyl]-4-hydroxy-3,4,5,6-tetrahydro-2H-pyran-2-one], the ED50 with sterol synthesis (setting [2]) is over 10 mg/kg. The IC50 was determined as 0.8 µM in assay [1] and 1.66 µM on HMG-CoA reductase.

As to `Cn1c(/C=C/[C@@H]2C[C@@H](O)CC(=O)O2)c(-c2ccc(F)cc2)c2ccccc21` [Example 10, (E)-Trans-6S-[2'-[3"-(4'"-fluorophenyl)-1"-methylindol-2"-yl]ethenyl]-4R-hydroxy-3,4,5,6-tetrahydro-2H-pyran-2-one], the “percentage change of sterol synthesis” value in the assay on sterol synthesis (at 4 mg./kg., male Wistar Royal Hart rats) was -47%. For the same compound, the figures for the concentration for half-maximal inhibition (IC50) (in assay [1]; at HMG-CoA reductase) were 0.42 µM and 1.7 µM, respectively.

With `Cn1c(/C=C\[C@@H]2C[C@@H](O)CC(=O)O2)c(-c2ccc(F)cc2)c2ccccc21` [Example 12, (Z)-Trans-6S-[2'-[3"-(4'"-fluorophenyl)-1"-methylindol-2"-yl]ethenyl]-4R-hydroxy-3,4,5,6-tetrahydro-2H-pyran-2-one], the inhibition at 1 µM in assay [1] (at 1 μmolar, read-out: percentage change (%Δ) of sterol biosynthesis) stood at 16%. For the same compound, the IC50 on HMG-CoA reductase came to 9.1 µM.

In the case of `CCOC(=O)CC(O)CC(O)/C=C/c1c(-c2ccc(F)cc2)c2ccc(OCc3ccccc3)cc2n1C` (stereo not drawn) [Example 21], the ED50 in the assay on sterol synthesis (setting [2]) worked out at 12.1 mg/kg. Besides, in assay [1], the concentration for half-maximal inhibition (IC50) was 0.2 µM.

Turning to `Cn1c(/C=C/C(O)CC(O)CC(=O)O)c(-c2ccc(F)cc2)c2ccc(OCc3ccccc3)cc21` (stereo not drawn) [Example 23], the IC50 in assay [1] is 0.6 µM; at HMG-CoA reductase, 0.09 µM.

As to `CCOC(=O)CC(O)CC(O)/C=C/c1c(-c2ccc(F)cc2)c2cc(Cl)ccc2n1C` (stereo not drawn) [Example 43], the values for the IC50 (in assay [1]; on HMG-CoA reductase) were 0.74 µM and 9.6 µM, respectively.

`CCOC(=O)CC(O)CC(O)/C=C/c1c(-c2ccc(F)cc2)c2ccccc2n1CC` (stereo not drawn) [Example 60]: the 50% effective dose (ED50) with sterol synthesis (setting [2]) came out at 0.87 mg/kg. Besides, the concentration for half-maximal inhibition (IC50) on HMG-CoA reductase amounted to 0.12 µM.

For the compound `CCOC(=O)CC(O)CC(O)/C=C/c1c(-c2ccc(F)cc2)c2ccc(OCc3ccccc3)cc2n1C(C)C` (stereo not drawn) [Example 75], on HMG-CoA reductase, the concentration for half-maximal inhibition (IC50) amounted to 0.0054 µM.

For the compound `CCOC(=O)CC(O)CC(O)/C=C/c1c(C)c2ccccc2n1-c1ccccc1` (stereo not drawn) [Example 132], in the assay on sterol synthesis (at 10 mg./kg., male Wistar Royal Hart rats), the “percentage change of sterol synthesis” value is reported as -35%. The inhibition at 10 µM in assay [1] (at 10 μmolar, read-out: percentage change (%Δ) of sterol biosynthesis) came to 71%. The 50% inhibitory concentration (IC50) at HMG-CoA reductase was 1.62 µM.

As to `CCC(C)C(=O)OC1CC(C)C=C2C=CC(C)C(CCC3CC(O)CC(=O)O3)C21` (stereo not drawn) [Mevinolin, reference compound], the ED50 with sterol synthesis is 0.41 mg/kg.

Values taken from patent US5354772A, “Indole analogs of mevalonolactone and derivatives thereof” (Sandoz Pharm. Corp., priority 1993, dated 1994).
